Assay [1] deals with SNU638 (stomach cancer cells). Put plainly: Inhibitory activity against cancer cells (sulforhodamine B staining). The assay is classed as cell-based. As to conditions: 3 days, SRB staining. Summed up: (§1)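 Cells pre-incubated 1 day (day-0 reference), then exposed to test compound 3 days. Sulforhodamine B staining (0.4% SRB, 1% acetic acid), dye dissolved in 10 mM Tris pH 10.0, absorbance at 515 nm. Cell division % relative to day 0 and control; IC50 by non-linear regression.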
A general note: In SRB staining, fixed cells bind dye roughly in proportion to their protein.

Assay [2] concerns PC-3 (prostate cancer cells). The description is as above. The assay is classed as cell-based. Conditions: 3 days, SRB staining. Put shortly: as §1
Assay [3] has as its system SK-Hep-1 (liver cancer cells). The assay is described as above. The assay is classed as cell-based. Conditions: 3 days, SRB staining. Summed up: as §1
In assay [4] the test system is HCT116 (colon cancer cells). The description is as above. The class given is cell-based. As to conditions: 3 days, SRB staining. Put shortly: as §1
Assay [5] has as its system MDA-MB-231 (breast cancer cells). The assay is described as above. The class given is cell-based. As to conditions: 3 days, SRB staining. Put shortly: as §1
The test system of another assay is A549 (lung cancer cells). Described as above. The assay is classed as cell-based. Conditions: 3 days, SRB staining. Summed up: as §1
The next assay deals with T1, CSNK1D (Homo sapiens, UniProt P48730).
T1 construct: made in house
T1 sequence (P48730 whole entry): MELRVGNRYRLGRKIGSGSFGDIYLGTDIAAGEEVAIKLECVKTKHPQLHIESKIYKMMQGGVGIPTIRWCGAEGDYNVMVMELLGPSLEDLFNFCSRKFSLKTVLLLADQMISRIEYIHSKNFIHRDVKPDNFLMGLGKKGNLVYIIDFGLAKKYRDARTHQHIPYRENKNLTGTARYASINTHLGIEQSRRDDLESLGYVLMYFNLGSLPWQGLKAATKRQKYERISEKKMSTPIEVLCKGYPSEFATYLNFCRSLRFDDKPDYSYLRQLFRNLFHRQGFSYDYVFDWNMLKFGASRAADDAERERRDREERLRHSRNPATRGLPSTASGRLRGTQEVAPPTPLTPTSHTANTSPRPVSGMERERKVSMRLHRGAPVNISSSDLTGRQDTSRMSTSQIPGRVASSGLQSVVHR
Briefly: Kinase inhibition test (DNA-tagged kinase, affinity resin, qPCR readout). Also on record: key: (−) indicates no effect; (+) indicates weak inhibitory activity; (++) indicates a moderate level of inhibitory activity; (+++) indicates strong inhibitory activity. The assay is classed as binding. Conditions: 1 μM of compound. Put shortly: (§2)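 Competition binding: DNA-tagged kinases (phage/E. coli or HEK-293 produced) with immobilized biotinylated ligand and test compound in DMSO, 1 h at room temperature. After washing, bound kinase eluted with 0.5 μM non-biotinylated ligand and quantified by qPCR.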
(In general: Quantitative PCR measures a nucleic acid by following its amplification.)

For the next assay, the target named is T2, NTRK1 (Homo sapiens, UniProt P04629).
T2 construct: made in house
T2 sequence (P04629 33-796): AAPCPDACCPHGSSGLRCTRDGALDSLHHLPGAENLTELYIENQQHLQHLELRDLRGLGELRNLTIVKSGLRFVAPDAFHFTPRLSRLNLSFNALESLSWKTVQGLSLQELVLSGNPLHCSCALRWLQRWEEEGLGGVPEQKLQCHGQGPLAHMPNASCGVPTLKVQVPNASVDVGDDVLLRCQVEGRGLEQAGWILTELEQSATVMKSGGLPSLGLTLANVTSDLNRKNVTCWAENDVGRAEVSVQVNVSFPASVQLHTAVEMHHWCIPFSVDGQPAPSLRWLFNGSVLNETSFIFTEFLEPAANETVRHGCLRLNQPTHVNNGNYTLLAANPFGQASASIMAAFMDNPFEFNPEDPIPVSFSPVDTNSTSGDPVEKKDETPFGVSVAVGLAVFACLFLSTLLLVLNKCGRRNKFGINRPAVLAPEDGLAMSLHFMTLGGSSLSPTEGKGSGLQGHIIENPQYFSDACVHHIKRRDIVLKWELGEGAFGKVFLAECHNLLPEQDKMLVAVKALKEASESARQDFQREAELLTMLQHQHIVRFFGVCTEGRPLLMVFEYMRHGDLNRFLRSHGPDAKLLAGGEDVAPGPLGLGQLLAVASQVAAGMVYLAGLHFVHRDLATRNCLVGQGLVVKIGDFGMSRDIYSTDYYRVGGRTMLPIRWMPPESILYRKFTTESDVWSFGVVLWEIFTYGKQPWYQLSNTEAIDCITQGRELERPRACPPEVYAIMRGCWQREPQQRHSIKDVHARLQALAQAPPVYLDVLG
The assay is described as above. Also on record: key: (−) indicates no effect; (+) indicates weak inhibitory activity; (++) indicates a moderate level of inhibitory activity; (+++) indicates strong inhibitory activity. The assay is classed as binding. As to conditions: 1 μM of compound. Summed up: as §2

The target of a further assay is T3, DYRK1B (Homo sapiens, UniProt Q9Y463).
T3 construct: made in house
T3 sequence (Q9Y463 whole entry): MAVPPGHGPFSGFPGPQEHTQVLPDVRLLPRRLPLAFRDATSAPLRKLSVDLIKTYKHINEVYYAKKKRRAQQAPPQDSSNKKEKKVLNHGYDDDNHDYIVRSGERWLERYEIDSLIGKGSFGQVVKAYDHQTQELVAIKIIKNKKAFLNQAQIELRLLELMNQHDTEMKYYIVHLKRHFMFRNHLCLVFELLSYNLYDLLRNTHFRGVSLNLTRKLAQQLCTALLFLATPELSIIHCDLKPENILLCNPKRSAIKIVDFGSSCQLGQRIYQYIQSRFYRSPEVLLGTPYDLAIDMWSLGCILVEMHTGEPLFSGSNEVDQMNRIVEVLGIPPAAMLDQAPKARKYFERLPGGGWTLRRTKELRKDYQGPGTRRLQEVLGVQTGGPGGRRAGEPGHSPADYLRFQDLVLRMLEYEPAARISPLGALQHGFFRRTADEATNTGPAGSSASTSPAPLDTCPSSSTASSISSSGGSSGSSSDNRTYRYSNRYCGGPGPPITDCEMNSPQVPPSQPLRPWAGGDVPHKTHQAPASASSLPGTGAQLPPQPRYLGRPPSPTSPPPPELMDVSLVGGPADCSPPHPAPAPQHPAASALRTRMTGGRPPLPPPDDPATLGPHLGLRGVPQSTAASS
The assay is described as above. The class given is binding. The arrangement: key: (−) indicates no effect; (+) indicates weak inhibitory activity; (++) indicates a moderate level of inhibitory activity; (+++) indicates strong inhibitory activity. As to conditions: 1 μM of compound. Put shortly:
as §2

The target in another assay is T4, FLT3 (Homo sapiens, UniProt P36888).
T4 construct: made in house
T4 sequence (P36888 27-993): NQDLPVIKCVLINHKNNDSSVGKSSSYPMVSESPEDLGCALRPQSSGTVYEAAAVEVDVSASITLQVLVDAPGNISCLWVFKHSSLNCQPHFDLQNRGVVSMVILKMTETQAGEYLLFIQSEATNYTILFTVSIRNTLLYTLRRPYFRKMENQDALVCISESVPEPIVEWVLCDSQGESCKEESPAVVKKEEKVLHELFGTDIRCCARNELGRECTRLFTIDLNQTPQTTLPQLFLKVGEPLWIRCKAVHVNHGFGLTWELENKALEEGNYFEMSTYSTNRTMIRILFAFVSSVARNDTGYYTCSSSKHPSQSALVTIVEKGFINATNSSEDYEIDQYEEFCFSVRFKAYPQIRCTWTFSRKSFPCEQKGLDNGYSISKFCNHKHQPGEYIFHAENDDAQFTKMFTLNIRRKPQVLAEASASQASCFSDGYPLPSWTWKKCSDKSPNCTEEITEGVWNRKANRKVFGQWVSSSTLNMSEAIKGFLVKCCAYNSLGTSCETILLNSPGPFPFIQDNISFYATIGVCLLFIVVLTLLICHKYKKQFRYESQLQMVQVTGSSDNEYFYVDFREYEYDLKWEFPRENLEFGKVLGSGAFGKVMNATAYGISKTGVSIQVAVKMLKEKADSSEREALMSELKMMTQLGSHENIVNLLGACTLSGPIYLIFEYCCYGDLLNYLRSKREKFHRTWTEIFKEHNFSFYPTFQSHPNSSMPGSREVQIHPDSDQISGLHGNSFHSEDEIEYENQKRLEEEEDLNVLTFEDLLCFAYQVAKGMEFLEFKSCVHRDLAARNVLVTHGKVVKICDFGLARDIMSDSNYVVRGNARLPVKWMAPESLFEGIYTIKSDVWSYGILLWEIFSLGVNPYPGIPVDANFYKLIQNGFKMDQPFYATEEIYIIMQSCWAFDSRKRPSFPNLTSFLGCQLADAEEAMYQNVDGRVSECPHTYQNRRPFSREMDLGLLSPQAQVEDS
Described as above. The class given is binding. As to conditions: 1 μM of compound. The arrangement: key: (−) indicates no effect; (+) indicates weak inhibitory activity; (++) indicates a moderate level of inhibitory activity; (+++) indicates strong inhibitory activity. Summed up: as §2

Another assay concerns the target T5, DYRK1A (Homo sapiens, UniProt Q13627).
T5 construct: made in house
The description is as above. As to conditions: 1 μM of compound. The assay is classed as binding. Also on record: key: (−) indicates no effect; (+) indicates weak inhibitory activity; (++) indicates a moderate level of inhibitory activity; (+++) indicates strong inhibitory activity. Put shortly:
as §2

A word on the IC50: it is the concentration at which inhibition is half-maximal.

For `C#Cc1cn([C@@H]2S[C@H](CN)[C@@H](O)[C@H]2O)c2ncnc(N)c12` [Compound 10a], the IC50 in [1] came to 1330 nM; in assay [2], 1980 nM; in [3], 1400 nM; in [4], 1350 nM; in assay [5] it was 1870 nM; in the assay on A549 (lung cancer cells), 1.58 µM. Also, on CSNK1D, the CSNK1D inhibitory activity result was “+++”. Besides, the NTRK1 inhibitory activity result on NTRK1 is reported as “+++”. Further, the DYRK1B inhibitory activity entry on DYRK1B was “++”. Further, at FLT3, the FLT3 inhibitory activity result is “+++”. The DYRK1A inhibitory activity result at DYRK1A is reported as “+++”.

As for `C#Cc1cn([C@@H]2S[C@H](CNC(=O)c3ccccc3)[C@@H](O)[C@H]2O)c2ncnc(N)c12` [Compound 8b], the IC50 amounted to 23300 nM in [1]; 29100 nM in assay [2]; 21200 nM in [3]; 26300 nM in assay [4]; 32400 nM in assay [5]; 28.6 µM in the assay with A549 (lung cancer cells). For the same compound, the CSNK1D inhibitory activity result at CSNK1D is “++”. Also, on NTRK1, the NTRK1 inhibitory activity entry is recorded as “+++”. The DYRK1B inhibitory activity result on DYRK1B is “+++”. In addition, the FLT3 inhibitory activity result on FLT3 is “++”. Further, at DYRK1A, the DYRK1A inhibitory activity result was “+++”.

Take `C#Cc1cn([C@@H]2S[C@H](COC(=O)c3ccccc3)[C@@H](O)[C@H]2O)c2ncnc(N)c12` [Compound 7b]: the IC50 in assay [1] came out at 1310 nM; in assay [2] it was 2050 nM; in assay [3], 570 nM; in assay [4], 2860 nM; in assay [5], 2130 nM; in the assay on A549 (lung cancer cells), 3.19 µM. Further, at CSNK1D, the CSNK1D inhibitory activity entry is listed as “++”. In addition, the NTRK1 inhibitory activity result on NTRK1 was “+++”. For the same compound, on DYRK1B, the DYRK1B inhibitory activity result is given as “++”. Moreover, on DYRK1A, the DYRK1A inhibitory activity entry is listed as “++”.

Source of the values: patent US20240300991A1, “NUCLEOSIDE DERIVATIVE HAVING MULTI-TARGET KINASE INHIBITORY ACTIVITY AND PHARMACEUTICAL COMPOSITION FOR PREVENTING AND TREATING CANCER COMPRISING SAME” (FUTURE MEDICINE CO., LTD., priority 2021, published 2024).
